Publication PMC10855334, “Molecular and Functional Characterization of Three General Odorant-Binding Protein 2 Genes in Cydia pomonella (Lepidoptera: Tortricidae)” (International Journal of Molecular Sciences, 2024)

Tests used:
CpomGOBP2b = CpomGOBP2b (Cydia pomonella, UniProt J7GAV3); test: Fluorescence competitive binding assay (1-NPN probe), recombinant CpomGOBP2b; settings: 2.0 µM protein in 50 mM Tris-HCl pH 7.4 titrated with 1-NPN, read-out: dissociation constant with 1-NPN
Description: (§1) The proteins were recombinantly expressed using an Escherichia coli expression system with an N-His tag. The complete coding regions lacking the signal peptide sequence of CpomGOBP2a, CpomGOBP2b, and CpomGOB2c were subcloned into the NdeI/EcoRI restricted and dephosphorylated pET-28b expression vector. The constructed plasmid was subsequently transformed into E. coli BL21 (DE3) competent cells for further expression. The size and purity of the target proteins were confirmed using sodium dodecyl sulfate-polyacrylamide gel electrophoresis (SDS-PAGE) and Western blot. The proteins were stored at −80 °C for subsequent fluorescence competitive binding experiments.
(§2) Fluorescence competitive binding assays were conducted on a Synergy4 (BioTek Instruments, Winooski, VT, USA) microplate reader using the F96 Black ELIAS Plate (Xinyou Biotechnology, Hangzhou, China). Probe 1-NPN and the tested ligands were dissolved in spectrophotometric-grade methanol to generate 1.0 mM stock solutions. The fluorescence probe 1-NPN was excited at 337 nm, and emission spectra were recorded between 390 and 490 nm. Initially, to test the binding constants of 1-NPN to the CpomGOBP2, a 2.0 µM solution of protein in 50 mM Tris-HCl (pH = 7.4) was titrated with 1 mM of 1-NPN to achieve various concentrations. […] After 2 min of odorant addition, the fluorescence intensity was measured and documented. […]

[1] = target: CpomGOBP2c (Cydia pomonella); test: Fluorescence competitive binding assay (1-NPN probe), recombinant CpomGOBP2c; settings: 2.0 µM protein in 50 mM Tris-HCl pH 7.4 titrated with 1-NPN, read-out: dissociation constant with 1-NPN
Description: as §1, §2

CpomGOBP2a = CpomGOBP2a (Cydia pomonella, UniProt J7G4I1); test: Fluorescence competitive binding assay (1-NPN probe), recombinant CpomGOBP2a; settings: for Ki: 2.0 µM protein and 2.0 µM 1-NPN, 50 mM Tris-HCl pH 7.4, competitor 2-20 µM, read-out: dissolution constants (Ki)
Description: as §1
Fluorescence competitive binding assays were conducted on a Synergy4 (BioTek Instruments, Winooski, VT, USA) microplate reader using the F96 Black ELIAS Plate (Xinyou Biotechnology, Hangzhou, China). Probe 1-NPN and the tested ligands were dissolved in spectrophotometric-grade methanol to generate 1.0 mM stock solutions. The fluorescence probe 1-NPN was excited at 337 nm, and emission spectra were recorded between 390 and 490 nm. Initially, to test the binding constants of 1-NPN to the CpomGOBP2, a 2.0 µM solution of protein in 50 mM Tris-HCl (pH = 7.4) was titrated with 1 mM of 1-NPN to achieve various concentrations. Next, the competitive binding of each odorant (Table 1) was examined using 1-NPN as a fluorescent reporter and the odorant as a competitor. The concentrations of protein and 1-NPN were both 2.0 µM; the odorant was included after the protein and 1-NPN were added into the well of the ELIAS Plate for 2 min. The final concentrations of each competitor were 2, 4, 6, 8, 10, 12, 14, 16, 18, and 20 µM. After 2 min of odorant addition, the fluorescence intensity was measured and documented. The volume of mixed solution in each well was maintained at 250 µL. Each interaction was conducted in triplicate.

Sequence of CpomGOBP2a (J7G4I1 entry or part of it): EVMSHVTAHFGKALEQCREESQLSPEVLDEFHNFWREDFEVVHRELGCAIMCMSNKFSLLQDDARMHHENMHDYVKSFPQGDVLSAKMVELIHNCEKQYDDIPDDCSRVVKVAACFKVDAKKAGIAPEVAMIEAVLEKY
Sequence of CpomGOBP2b (J7GAV3 entry or part of it): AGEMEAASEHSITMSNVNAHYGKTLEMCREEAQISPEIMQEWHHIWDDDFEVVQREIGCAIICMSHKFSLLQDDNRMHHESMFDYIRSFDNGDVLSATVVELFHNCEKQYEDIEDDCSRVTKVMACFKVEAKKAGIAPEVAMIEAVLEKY
Sequence of CpomGOBP2c (Cydia pomonella) (J7GAV3 entry or part of it): as above

Compound	Kd (CpomGOBP2b) [µM]	Kd [1] [µM]	Kd (CpomGOBP2a; 2.0 µM protein in 50 mM Tris-HCl pH 7.4 titrated with 1-NPN, read-out: dissociation constant with 1-NPN) [µM]	Ki (CpomGOBP2a) [µM]
c1ccc(Nc2cccc3ccccc23)cc1 [1-NPN]	27.5	18.9	12.6	–
CCCCCCCC(=O)OCCCC [butyl octanoate]	–	–	–	8.6
C/C=C/C=C/CCCCCCCO [codlemone]	–	–	–	22.7
CCCCC/C=C\C=C\C(=O)OCC [ethyl (2E,4Z)-deca-2,4-dienoate]	–	–	–	9.15
CC(=O)CC/C=C(\C)CCC=C(C)C [geranylacetone]	–	–	–	22.9
